Results reported in patent publication EP1021178B1, “SELENOPHENE ANTI-TUMOR AGENTS” (Purdue Research Foundation, priority 1996, dated 1997).

Test system: CAKI-1
Assay: NCI human tumor cell panel
Type: cell-based
Details: CAKI-1, read-out: Log10 LC50 (converted)

| SMILES | LC50 [µM] |
| --- | --- |
| O=Cc1ccc(-c2ccc(-c3ccc(C=O)[se]3)s2)s1 | 29.5 |
| OCc1ccc(-c2ccc(-c3ccc[se]3)s2)[se]1 | 64.6 |
| OCc1ccc(-c2ccc(-c3ccc[se]3)[se]2)[se]1 | 51.3 |
| OCc1ccc(-c2ccc(-c3ccc(CO)[se]3)[se]2)[se]1 | 13.2 |
| OCc1ccc(-c2ccc(-c3ccc(CO)s3)[se]2)s1 | > 100 |
| OCc1ccc(-c2ccc(-c3ccc(CO)[se]3)s2)[se]1 | > 100 |
| O=Cc1ccc(-c2ccc(-c3ccc(C=O)[se]3)s2)[se]1 | > 100 |
| O=Cc1ccc(-c2ccc(-c3ccc(C=O)[se]3)[se]2)[se]1 | > 100 |
| O=Cc1ccc(-c2ccc(-c3ccc[se]3)[se]2)[se]1 | 14.5 |
| O=Cc1ccc(-c2ccc(-c3ccc(C=O)s3)[se]2)s1 | > 100 |
